For one test, the system named is MolM14. The test can be described thus: XTT cell viability assay, MolM14. It is filed as cell-based, human. The following applies: Homo sapiens, MOLM-14; XTT assay (48 h); standard deviation of 10%; read-out: EC50 (μM) AML MolM14. The method, then: (§1) Fifty microliters of sodium 3′-[1-phenylaminocarbonyl)-3,4-tetrazolium]-bis(4-methoxy-6-nitro) benzene sulfonic acid hydrate (XTT) reagent was added to each well. The assay is based on the cleavage of the yellow tetrazolium salt XTT to form an orange formazan dye by metabolically active cells. The absorbance of the formazan product, reflecting cell viability, was measured at 490 nm. Each assay was performed in quadruplicate.
(§2) Compounds #1-#14 have been assayed as potential anti-proliferative agents against a panel of human breast head and neck, and kidney tumor cells and hematological malignancies, selected on the basis of their aggressiveness (e.g. incurable triple-negative breast cancer cells: MDA-MB-231; kidney ccRCC cells: RCC4, A498 and 786-O and 786R; head and neck cancer cells: CAL33, CAL33RR, CAL27, and CAL27RR; acute myeloid cell lines: OCI-AML2, OCI-AML3, MolM13, and MolM14; myelodysplastic cell line: SM1; and chronic myeloid cell line: CML). All these cell lines share as common denominator the expression of CXCR1 and CXCR2. The EC50 values have been measured by a XTT colorimetric assay, and compared to those of SB-225002, used as a reference; the results are listed in Table 1.
For orientation: Tetrazolium dyes change colour on reduction, which living cells bring about.

The next test concerns MolM13. Put plainly: XTT cell viability assay, MolM13. The following applies: Homo sapiens, MOLM-13; XTT assay (48 h); standard deviation of 10%; read-out: EC50 (μM) AML MolM13. The class given is cell-based, human. The method, then: as §1, §2
The next test concerns HuVEC. Put plainly: HuVEC viability/proliferation (XTT), basal and CXCL5/CXCL7-dependent. The class given is cell-based. The settings on record: XTT 48 h; 100 ng/ml CXCL7 or CXCL5, 0.25 or 0.5 μM. As for the experimental part: C: HuVEC were grown in the presence of different concentrations of compound #1 for 48h. Cell viability was measured by XTT assays;
D: HuVEC were incubated with 100 ng/ml CXCL7 or CXCL5, in presence of 0.25 or 0.5 μM compound #1 for 48 h. Cell viability was measured by XTT assays;
as §1

Another test concerns 786-O and 786-R cells. Put plainly: Clonogenicity (colony formation) assay, RCC cells. It is filed as cell-based, human. The settings on record: 1 μM, 10 days. The method, then: G: Clonogenicity assays: RCC cells ([…] and 786-R) were treated with compound #1 or sunitinib (1 μM) and colored with Giemsa blue after 10 days (representative results of an experiment repeated trice);
Cells (5000 cells per condition) were treated or not with compound #1 and sunitinib, and cisplatin. Colonies were detected after 10 days of culture. Cells were then washed, fixed at room temperature for 20 min with 3% paraformaldehyde (PFA; Electron Microscopy Sciences) and colored by GIEMSA (Sigma)

The next test concerns DAOY and HD-MB03 cells. Put plainly: Proliferation test, medulloblastoma cells. The class given is cell-based. The settings on record: 1 μM, cell counts days 1 to 8, vs DMSO. As for the experimental part: FIG. 7: Inhibition of proliferation of medulloblastoma cells by compound #1. Cells were treated or not with 1 μM compound #1 for the indicated days. Cells were counted at the indicated days. * p<0.05; ** p<0.01; *** p<0.001.
1500 DAOY and HD-MB03 cells were seeded in a 6-well plate with or without treatment (1 μM of compound #1 or DMSO as control “CONT”), at 37° C. in a 5% CO2 incubator. Cells were dissociated using trypsone 1X-EDTA (Gibco® Life Technologies) and were counted with Coulter Beckman® counter (Villepinte) at days 1, 4, 6, 7, and 8. Each assay was performed in triplicate.

A further test deals with K562. Put plainly: XTT cell viability assay, K562. The settings on record: Homo sapiens, K562; XTT assay (48 h); standard deviation of 10%; read-out: EC50 (μM) CML K562. The class given is cell-based, human. The method, then:
as §1, §2

The subject of the next test is CAL33RR. The test can be described thus: XTT cell viability assay, CAL33RR. The following applies: Homo sapiens, light or radiation study; XTT assay (48 h); resistant to irradiation and cisplatin; standard deviation of 10%; read-out: EC50 (μM) Head and Neck CAL33RR. The class given is cell-based. The method, then: as §1, §2
The test system of a further test is TF and CC cells. Put plainly: FACS apoptosis markers, primary RCC cells. The class given is cell-based, human. The following applies: 1 μM, 48 h. The method, then: C: Primary RCC cells (TF and CC) and normal renal cells (15S) were treated with compound #1 (1 to 5 μM) for 48 h. Cells were stained with the PI/annexin-V-fluos staining kit according to the manufacturer's indications. Histograms show both annexin-V+/PI− cells (open bars) and annexin-V+/PI+ cells (filled bars). *P<0.05; **P<0.01; ***P<0.001.
Apoptosis analysis: After stimulation, cells were washed with ice-cold PBS and were stained with the annexin-V-fluos staining kit (Roche, Meylan, France) according to the manufacturer's procedure. Fluorescence was measured by using the FL2 (AV) and FL3 (propidium iodide, PI) channels of a fluorescence-activated cell sorter apparatus (Calibur cytometer).

A further test concerns 786R. The test can be described thus: XTT cell viability assay, 786R (sunitinib-resistant). It is filed as cell-based, human. The following applies: for EC50: XTT assay (48 h), sunitinib-resistant, standard deviation of 10%, read-out: EC50 (μM) Kidney 786R. As for the experimental part:
A, B: Naive (786-O, A), and sunitinib-resistant (786-R, B) 786-O cells, were treated with compound #1 or sunitinib (1 to 10 μM) for 48 hr. Cell viability was measured by XTT assays;
D, E: 786-O (D), 786-R (E), were treated with 2.5 μM compound #1 or 2.5 μM sunitinib for 24 h to 96 h. The cells metabolism was measured by XTT assay;
as §1, §2

In another test the test system is MDA-MB-231. The test can be described thus: XTT cell viability assay, MDA-MB-231. The class given is cell-based. The settings on record: Homo sapiens, XTT assay (48 h), standard deviation of 10%, read-out: EC50 (μM) Breast MDA-MB-231. As for the experimental part: as §1, §2
The test system of the next test is ERK signaling pathway. The test can be described thus: Immunoblotting of p-ERK in CXCL5-stimulated HuVEC. The settings on record: 5 μM pre-treatment 1 h, CXCL5 50 ng/ml 10 min. It is filed as cell-based. The method, then:
E: HuVEC were pre-treated with 5 μM compound #1 for 1 h then stimulated with 50 ng/ml CXCL5 for 10 min. p-ERK levels were analyzed by immunoblotting. ERK and HSP60 served as loading controls *P<0.05; **P<0.01; ***P<0.001.
Cells were lysed in buffer containing 3% SDS, 10% glycerol and 0.825 mM Na2HPO4. 30 to 50 μg of proteins were separated on 10% SDS-PAGE, transferred onto a PVDF membrane (Immobilon, Millipore, France) and then exposed to the appropriate antibodies. Proteins were visualized with the ECL system using horseradish peroxidase-conjugated anti-rabbit or anti-mouse secondary antibodies.
(In general: Immunoblotting shows a protein as a band on a membrane.)

The next test concerns RCC4. Put plainly: XTT cell viability assay, RCC4. The class given is cell-based. The following applies: Homo sapiens, XTT assay (48 h), standard deviation of 10%, read-out: EC50 (μM) Kidney RCC4. As for the experimental part:
as §1, §2

Where two headings read alike, the source gives them in different places.

What is called EC50 is the concentration at which the effect is half-maximal.

As for `O=C(Nc1cccc(Cl)c1)Nc1nc2ccc([N+](=O)[O-])cc2s1` [Compound #1, 1-(3-chlorophenyl)-3-(6-nitrobenzo[d]thiazol-2-yl)urea], the EC50 worked out at 4 µM in the test with MolM14; 7 µM in the test with MolM13; 2 µM in the test on K562; 3 µM in the test with CAL33RR; 2 µM in the test with 786R (Homo sapiens, 48 h); 2.5 µM in the test with 786R. Further, the results for the EC50 with MDA-MB-231 and in the test on RCC4 were 2.5 µM and 5 µM, respectively. Besides, in the test on HuVEC, the “basal and CXCL5/CXCL7-dependent HuVEC proliferation” value was “inhibits basal and CXCL5/CXCL7-dependent HuVEC proliferation”. The clonogenicity entry in the test on 786-O and 786-R cells was “exerts a cytostatic effect”. The “proliferation of DAOY and HD-MB03 cells” value in the test on DAOY and HD-MB03 cells is listed as “significatively reduces the proliferation”. Moreover, the “apoptosis markers in TF and CC cells” value with TF and CC cells is “puts into exergue the apoptosis markers in TF and CC cells”. Also, the “time of treatment to total inhibition of proliferation” value in the test with 786R (786-R cells, 2.5 μM, XTT 24 h to 96 h) is about 100 h. Further, in the test with ERK signaling pathway, the “ERK signaling pathway (p-ERK) in HuVEC” value was “inhibition of the ERK signaling pathway”.
